{
  "source": "paper PMC6934184",
  "about": "“Selective DNA-PKcs inhibition extends the therapeutic index of localized radiotherapy and chemotherapy” (The Journal of Clinical Investigation, 2019)",
  "target": "T1, MAPK9 (JNK2) (Homo sapiens, UniProt P45984)",
  "T1 construct": "purchased Thermo Fisher Scientific (Life Technologies) SelectScreen",
  "T1 sequence (P45984 whole entry)": "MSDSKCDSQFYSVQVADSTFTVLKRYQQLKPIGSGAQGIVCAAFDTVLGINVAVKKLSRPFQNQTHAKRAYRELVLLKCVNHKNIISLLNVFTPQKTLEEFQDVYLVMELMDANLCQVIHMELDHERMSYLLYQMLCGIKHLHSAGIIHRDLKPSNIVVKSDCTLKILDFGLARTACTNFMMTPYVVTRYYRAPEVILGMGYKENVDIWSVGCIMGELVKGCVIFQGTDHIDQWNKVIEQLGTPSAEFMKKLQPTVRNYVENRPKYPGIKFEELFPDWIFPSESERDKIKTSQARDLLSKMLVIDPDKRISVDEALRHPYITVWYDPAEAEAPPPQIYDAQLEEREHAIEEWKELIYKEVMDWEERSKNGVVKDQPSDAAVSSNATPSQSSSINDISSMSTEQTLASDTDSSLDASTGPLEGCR",
  "experiment": "SelectScreen Z'LYTE",
  "assay_type": "biochemical",
  "conditions": "ATP 100 µM",
  "outline": "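SelectScreen broad panel; activity (Z'LYTE, Adapta) plus binding formats. ATP: Km app for CSF1R Z'LYTE; 10 for CAMK1 Adapta. Readout = % per kinase.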",
  "data": [
    {"smiles": "CN(C(=O)CN1CCOCC1)c1ccc2sc3c(-c4cccc5c(=O)cc(N6CC7CCC(C6)O7)oc45)cccc3c2c1", "note": "[NU5455]", "values": [
      {"measurement": "inhibition at 1 µM", "value": 2.8, "unit": "%"}
    ]}
  ]
}
